# Results published in US12344595B2, “2-amino-n-phenyl-nicotinamides as NAV1.8 inhibitors” (Merck Sharp & Dohme LLC, priority 2018, dated 2025).
# Target: human Nav1.8 (Homo sapiens (Human), UniProt Q9Y5Y9)
# Assay: Nav1.8 Qube automated patch-clamp assay
# Assay type: cell-based
# Conditions: Nav1.8 Qube Assay; human Nav1.8 channels stably expressed in HEK 293 cells
# In short: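 IC50 values came from Hill fitting of peak currents: pulse 1 for resting-state and pulse 10 for inactivated-state inhibition. Currents were recorded in stably transfected HEK293 cells at room temperature, with ten 20 ms steps to 10 mV at 1 Hz from a −90 mV hold. External solution was 150 mM NaCl-based; internal solution was CsF/CsCl.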
# Chain of human Nav1.8 (Q9Y5Y9 whole entry): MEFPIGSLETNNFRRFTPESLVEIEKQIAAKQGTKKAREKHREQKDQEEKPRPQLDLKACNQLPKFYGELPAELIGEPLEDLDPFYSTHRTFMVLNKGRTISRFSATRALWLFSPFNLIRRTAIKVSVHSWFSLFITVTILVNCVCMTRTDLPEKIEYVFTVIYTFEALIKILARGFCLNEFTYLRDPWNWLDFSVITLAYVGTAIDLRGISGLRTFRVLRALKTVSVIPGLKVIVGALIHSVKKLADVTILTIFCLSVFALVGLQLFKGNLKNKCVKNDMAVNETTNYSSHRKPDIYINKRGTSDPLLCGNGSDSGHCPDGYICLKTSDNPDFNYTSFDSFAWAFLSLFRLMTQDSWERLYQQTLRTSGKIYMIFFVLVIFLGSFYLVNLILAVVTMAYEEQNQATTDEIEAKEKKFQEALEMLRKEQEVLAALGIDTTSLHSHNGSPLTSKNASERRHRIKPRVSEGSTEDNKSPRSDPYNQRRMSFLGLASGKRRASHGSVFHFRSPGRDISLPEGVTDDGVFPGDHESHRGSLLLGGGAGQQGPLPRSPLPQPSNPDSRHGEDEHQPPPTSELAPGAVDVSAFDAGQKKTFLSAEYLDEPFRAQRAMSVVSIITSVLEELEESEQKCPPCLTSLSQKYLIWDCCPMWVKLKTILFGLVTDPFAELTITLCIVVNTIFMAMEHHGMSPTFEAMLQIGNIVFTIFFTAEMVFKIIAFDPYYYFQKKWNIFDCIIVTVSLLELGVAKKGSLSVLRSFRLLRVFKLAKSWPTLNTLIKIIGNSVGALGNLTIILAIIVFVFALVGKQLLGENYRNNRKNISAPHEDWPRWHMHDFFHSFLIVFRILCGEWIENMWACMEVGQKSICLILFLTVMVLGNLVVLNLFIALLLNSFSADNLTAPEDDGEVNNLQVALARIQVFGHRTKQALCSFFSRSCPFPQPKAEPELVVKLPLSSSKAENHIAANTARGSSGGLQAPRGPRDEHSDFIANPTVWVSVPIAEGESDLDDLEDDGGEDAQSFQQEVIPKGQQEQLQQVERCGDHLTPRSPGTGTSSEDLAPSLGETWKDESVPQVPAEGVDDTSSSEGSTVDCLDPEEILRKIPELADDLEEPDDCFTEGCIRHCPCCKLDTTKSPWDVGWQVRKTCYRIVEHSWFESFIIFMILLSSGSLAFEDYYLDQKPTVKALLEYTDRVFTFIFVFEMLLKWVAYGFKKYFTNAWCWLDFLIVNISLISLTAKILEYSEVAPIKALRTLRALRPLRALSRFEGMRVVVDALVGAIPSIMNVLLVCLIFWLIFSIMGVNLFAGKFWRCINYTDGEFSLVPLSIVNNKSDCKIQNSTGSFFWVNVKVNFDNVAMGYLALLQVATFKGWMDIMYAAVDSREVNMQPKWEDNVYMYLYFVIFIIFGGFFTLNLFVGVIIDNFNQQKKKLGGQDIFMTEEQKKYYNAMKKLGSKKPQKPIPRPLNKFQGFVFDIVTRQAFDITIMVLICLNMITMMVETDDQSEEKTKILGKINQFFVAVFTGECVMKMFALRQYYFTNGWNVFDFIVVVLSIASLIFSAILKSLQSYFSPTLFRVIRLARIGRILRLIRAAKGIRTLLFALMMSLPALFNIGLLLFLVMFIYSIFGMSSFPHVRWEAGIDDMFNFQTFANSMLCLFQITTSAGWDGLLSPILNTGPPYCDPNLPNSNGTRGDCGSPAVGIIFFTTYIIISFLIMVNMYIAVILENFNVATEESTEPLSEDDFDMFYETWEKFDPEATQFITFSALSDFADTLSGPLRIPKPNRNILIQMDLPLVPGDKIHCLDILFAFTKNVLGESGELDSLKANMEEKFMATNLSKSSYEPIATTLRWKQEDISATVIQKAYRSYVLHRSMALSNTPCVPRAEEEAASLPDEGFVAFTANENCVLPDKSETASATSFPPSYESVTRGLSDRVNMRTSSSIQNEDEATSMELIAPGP
row,SMILES,IC50
1,"NS(=O)(=O)c1cccc(NC(=O)c2cc(C(F)(F)F)cnc2N2CCC(F)(F)CC2)c1 [Example 1, 2-(4,4-difluoropiperidin-1-yl)-N-(3-sulfamoylphenyl)-5-(trifluoromethyl)nicotinamide]",47 nM
2,"NS(=O)(=O)c1cccc(NC(=O)c2cc(C(F)(F)F)cnc2N2C[C@H]3C[C@@H](C2)C3(F)F)c1 [Example 132, 2-[(1R,5S)-6,6-difluoro-3-azabicyclo[3.1.1]-heptan-3-yl]-N-(3-sulfamoylphenyl)-5-(trifluoromethyl)-pyridine-3-carboxamide]",170 nM
3,"NS(=O)(=O)c1cccc(NC(=O)c2cc(C(F)(F)F)cnc2N2CC3CCCC32)c1 (stereo not drawn) [Example 59, 2-(6-azabicyclo[3.2.0]heptan-6-yl)-N-(3-sulfamoyl-phenyl)-5-(trifluoro-methyl)pyridine-3-carboxamide]",698 nM
4,"Cc1cc(Cl)nc(N2CCCC(F)(F)CC2)c1C(=O)Nc1cccc(S(C)(=O)=O)c1 [Example 8, 6-chloro-2-(4,4-difluoroazepan-1-yl)-4-methyl-N-(3-methyl-sulfonylphenyl)pyridine-3-carboxamide]",5.8 nM
5,"CC1CN(c2ncc(C(F)(F)F)cc2C(=O)Nc2cccc(S(N)(=O)=O)c2)CCC1(F)F (single isomer, unassigned) [Example 124, (S or R)-2-(4,4-difluoro-3-methylpiperidin-1-yl)-N-(3-sulfamoylphenyl)-5-(trifluoromethyl)nicotinamide]",15 nM
6,"NS(=O)(=O)c1cccc(NC(=O)c2cc(C3CC3)cnc2N2CCCC(F)(F)CC2)c1 [Example 163, 5-cyclopropyl-2-(4,4-difluoroazepan-1-yl)-N-(3-sulfamoyl-phenyl)nicotinamide]",7.3 nM
7,"CS(=O)(=O)c1cccc(NC(=O)c2cc(C(F)(F)F)cnc2N2C[C@H]3CCCC[C@H]3C2)c1 [Example 97, 2-[(3aS,7aR)-1,3,3a,4,5,6,7,7a-octahydroisoindol-2-yl]-N-(3-methyl-sulfonylphenyl)-5-(trifluoromethyl) pyridine-3-carboxamide]",49 nM
8,"CS(=O)(=O)c1cccc(NC(=O)c2cc(C(F)(F)F)cnc2N2CCC(F)(F)CC2)c1 [Example 152, 2-(4,4-difluoropiperidin-1-yl)-N-(3-(methylsulfonyl)phenyl)-5-(trifluoromethyl)nicotinamide]",67 nM
9,"NS(=O)(=O)c1cccc(NC(=O)c2cc(C(F)(F)F)cnc2N2CCCC(O)CC2)c1 (stereo not drawn) [Example 65, 2-(4-hydroxyazepan-1-yl)-N-(3-sulfamoyl-phenyl)-5-(trifluoro-methyl)pyridine-3-carboxamide]",2210 nM
10,"NS(=O)(=O)c1cccc(NC(=O)c2cc(C(F)(F)F)cnc2N2C3CCC2CC3)c1 [Example 139, 2-(7-azabicyclo[2.2.1]heptan-7-yl)-N-(3-sulfamoyl-phenyl)-5-(trifluoro-methyl)pyridine-3-carboxamide]",3460 nM
11,"COC(=O)C1CCCCN(c2ncc(C(F)(F)F)cc2C(=O)Nc2cccc(S(N)(=O)=O)c2)C1 (stereo not drawn) [Example 67, methyl 1-[3-[(3-sulfamoylphenyl)carbamoyl]-5-(trifluoro-methyl)-2-pyridyl]-azepane-3-carboxylate]",2980 nM
12,"CS(=O)(=O)c1cccc(NC(=O)c2cc(C(F)(F)F)cnc2N2CCC3OCCC32)c1 (stereo not drawn) [Example 104, 2-(2,3,3a,5,6,6a-hexahydrofuro[3,2-b]pyrrol-4-yl)-N-(3-methylsulfonylphenyl)-5-(trifluoromethyl) pyridine-3-carboxamide]",7330 nM
13,"CC1CCN(c2ncc(C(F)(F)F)cc2C(=O)Nc2cccc(S(N)(=O)=O)c2)CC(C)(C)C1 (stereo not drawn) [Example 47, N-(3-sulfamoylphenyl)-5-(trifluoromethyl)-2-(3,3,5-trimethylazepan-1-yl)pyridine-3-carboxamide]",29 nM

# The next lines start with the values.
row,IC50,SMILES
1,32 nM,"NC(=O)c1cccc(NC(=O)c2cc(C(F)(F)F)cnc2N2CCCC(F)(F)CC2)c1 [Example 106, N-(3-carbamoylphenyl)-2-(4,4-difluoroazepan-1-yl)-5-(trifluoro-methyl)pyridine-3-carboxamide]"
2,4430 nM,"Cc1ccc(-c2cnc(N3CCCCC3)c(C(=O)Nc3cccc(S(N)(=O)=O)c3)c2)cc1 [Example 27, 2-(piperidin-1-yl)-N-(3-sulfamoylphenyl)-5-(p-tolyl)nicotinamide]"
3,290 nM,"Cc1ccnc(N2CCCCCC2)c1C(=O)Nc1cccc(S(N)(=O)=O)c1 [Example 175, 2-(azepan-1-yl)-4-methyl-N-(3-sulfamoyl-phenyl)pyridine-3-carboxamide]"
4,44 nM,"NS(=O)(=O)c1cccc(NC(=O)c2c(Br)ccnc2N2CCCCCC2)c1 [Example 33, 2-(azepan-1-yl)-4-bromo-N-(3-sulfamoyl-phenyl)pyridine-3-carboxamide]"
5,778 nM,"CC(C)S(=O)(=O)c1cccc(NC(=O)c2cc(C(F)(F)F)cnc2N2CCCCCC2)c1 [Example 117, 2-(azepan-1-yl)-N-(3-isopropylsulfonylphenyl)-5-(trifluoromethyl)-pyridine-3-carboxamide]"
6,32 nM,"COc1nc(N2CCCCCC2)c(C(=O)Nc2cccc(S(N)(=O)=O)c2)cc1C [Example 155, 2-(azepan-1-yl)-6-methoxy-5-methyl-N-(3-sulfamoylphenyl)nicotinamide]"
7,10 nM,"Cc1cc(Cl)nc(N2CCCCCC2)c1C(=O)Nc1cccc(S(N)(=O)=O)c1 [Example 29, 2-(azepan-1-yl)-6-chloro-4-methyl-N-(3-sulfamoylphenyl)nicotinamide]"
8,2680 nM,"CC(C)(C)c1ccc(C(=O)Nc2cccc(S(N)(=O)=O)c2)c(N2CCCCC2)n1 [Example 42, 6-(tert-butyl)-2-(piperidin-1-yl)-N-(3-sulfamoylphenyl)nicotinamide]"
9,242 nM,"NS(=O)(=O)c1cc(F)cc(NC(=O)c2cc(C(F)(F)F)cnc2N2CCCCC2)c1 [Example 114, N-(3-fluoro-5-sulfamoyl-phenyl)-2-(1-piperidyl)-5-(tri-fluoromethyl)-pyridine-3-carboxamide]"
10,687 nM,"O=C(Nc1cccc(S(=O)(=O)Nc2ccncn2)c1)c1cc(C(F)(F)F)cnc1N1CCCCCC1 [Example 151, 2-(azepan-1-yl)-3-((3-(N-(pyrimidin-4-yl)sulfamoyl)phenyl)carbamoyl)-5-(trifluoromethyl)pyridin-1-ium]"
11,54 nM,"Cc1nc(N2CCCCCC2)c(C(=O)Nc2cccc(C(N)=O)c2)cc1C#N [Example 178, 2-(azepan-1-yl)-N-(3-carbamoylphenyl)-5-cyano-6-methyl-pyridine-3-carboxamide]"
12,20 nM,"CS(=O)(=O)c1cccc(NC(=O)c2cc(C(F)(F)F)cnc2N2CCCCCCC2)c1 [Example 95, 2-(azocan-1-yl)-N-(3-methylsulfonylphenyl)-5-(trifluoromethyl)-pyridine-3-carboxamide]"
13,342 nM,"NS(=O)(=O)c1cccc(NC(=O)c2ccc(C(F)(F)C(F)(F)F)nc2N2CCCCC2)c1 [Example 165, 6-(1,1,2,2,2-pentafluoroethyl)-2-(1-piperidyl)-N-(3-sulfamoylphenyl) pyridine-3-carboxamide]"
14,54 nM,"Cc1nc(N2CCCCC2)c(C(=O)Nc2cccc(S(C)(=O)=O)c2)c(C)c1Cl [Example 12, 5-chloro-4,6-dimethyl-N-(3-methylsulfonyl-phenyl)-2-(1-piperidyl)pyridine-3-carboxamide]"
